US20080051387A1, “TETRAHYDROPYRIDO[3,4-D]PYRIMIDINES AND RELATED ANALOGUES” (priority 2006, published 2008)

These molecules were tested against T1, chimeric human H3 receptor (Homo sapiens, UniProt Q9Y5N1) (assay: Chimeric human H3 receptor screening GTP binding assay (inhibition of histamine-stimulated GTP-gamma35S binding, Example 8)). Conditions: symbol ! in Ki; test compound 4 μM, 1 μM histamine; read-out: percent inhibition of agonist-induced GTP-gammaS binding to H3.
T1 construct: rat Galpha-i2 (Gnai2, rat); made in house; host or cells: Sf9 insect cells (baculovirus); P2 membranes
Format: biochemical
In short: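 Sf9 membranes co-expressing chimeric human H3 receptor and heterotrimeric G-protein (35 μg protein) incubated 60 min at room temperature with 4 μM compound, 1 μM histamine and 125 pM GTP-gamma35S in pH 7.4 buffer with 10 μM GDP. Filter-bound radioactivity, nonspecific (10 μM GTP-gammaS) subtracted, reported as % inhibition of histamine signal.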

T1 sequence (Q9Y5N1 with tags, fused parts or gaps): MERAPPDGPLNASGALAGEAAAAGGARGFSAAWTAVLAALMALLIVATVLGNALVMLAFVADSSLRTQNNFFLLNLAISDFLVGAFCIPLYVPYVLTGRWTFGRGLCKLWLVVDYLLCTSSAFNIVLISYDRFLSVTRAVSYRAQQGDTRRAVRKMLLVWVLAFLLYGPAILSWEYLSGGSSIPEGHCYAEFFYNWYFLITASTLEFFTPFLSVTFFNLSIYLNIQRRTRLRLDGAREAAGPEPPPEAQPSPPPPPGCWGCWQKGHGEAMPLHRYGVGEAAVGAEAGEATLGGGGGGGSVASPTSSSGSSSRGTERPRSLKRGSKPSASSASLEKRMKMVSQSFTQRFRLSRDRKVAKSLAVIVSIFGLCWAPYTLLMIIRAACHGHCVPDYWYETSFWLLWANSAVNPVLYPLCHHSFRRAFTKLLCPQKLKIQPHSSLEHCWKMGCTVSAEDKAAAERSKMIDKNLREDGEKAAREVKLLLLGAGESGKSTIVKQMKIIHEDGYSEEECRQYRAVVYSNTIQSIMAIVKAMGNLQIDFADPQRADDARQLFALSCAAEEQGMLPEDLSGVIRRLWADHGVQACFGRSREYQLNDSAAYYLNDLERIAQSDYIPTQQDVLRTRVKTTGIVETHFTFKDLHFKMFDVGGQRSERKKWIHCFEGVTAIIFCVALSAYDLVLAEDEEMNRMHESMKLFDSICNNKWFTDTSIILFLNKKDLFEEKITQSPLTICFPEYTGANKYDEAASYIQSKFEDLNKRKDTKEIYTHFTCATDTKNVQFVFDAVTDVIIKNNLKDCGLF

Inhibition at 4 µM, ≥ 90%:
c1nc2c(c(N3CCN(C4CCC4)CC3)n1)CCN(Cc1ccc(N3CCCC3)nc1)C2 [Compound 96, 4-(4-cyclobutylpiperazin-1-yl)-7-[(6-pyrrolidin-1-ylpyridin-3-yl)methyl]-5,6,7,8-tetrahydropyrido[3,4-d]pyrimidine]
Cc1c(F)cccc1CN1CCc2c(ncnc2N2CCN(C3CCC3)CC2)C1 [Compound 97, 4-(4-cyclobutylpiperazin-1-yl)-7-(3-fluoro-2-methylbenzyl)-5,6,7,8-tetrahydropyrido[3,4-d]pyrimidine]
Clc1ccccc1CN1CCc2c(ncnc2N2CCN(C3CCC3)CC2)C1 [Compound 98, 7-(2-chlorobenzyl)-4-(4-cyclobutylpiperazin-1-yl)-5,6,7,8-tetrahydropyrido[3,4-d]pyrimidine]
Clc1ccc(CN2CCc3c(ncnc3N3CCN(C4CCC4)CC3)C2)c(Cl)c1 [Compound 99, 4-(4-cyclobutylpiperazin-1-yl)-7-(2,4-dichlorobenzyl)-5,6,7,8-tetrahydropyrido[3,4-d]pyrimidine]
c1nc2c(c(N3CCN(C4CCC4)CC3)n1)CCN(Cc1ccc(N3CCCC3)cc1)C2 [Compound 100, 4-(4-cyclobutylpiperazin-1-yl)-7-(4-pyrrolidin-1-ylbenzyl)-5,6,7,8-tetrahydropyrido[3,4-d]pyrimidine]
CC(c1ccccc1)N1CCc2c(ncnc2N2CCN(C3CCC3)CC2)C1 (centres unmarked) [Compound 101, 4-(4-cyclobutylpiperazin-1-yl)-7-(1-phenylethyl)-5,6,7,8-tetrahydropyrido[3,4-d]pyrimidine]
CC(c1ccccc1F)N1CCc2c(ncnc2N2CCN(C3CCC3)CC2)C1 (centres unmarked) [Compound 102, 4-(4-cyclobutylpiperazin-1-yl)-7-[1-(2-fluorophenyl)ethyl]-5,6,7,8-tetrahydropyrido[3,4-d]pyrimidine]
CC(c1cccc(F)c1)N1CCc2c(ncnc2N2CCN(C3CCC3)CC2)C1 (centres unmarked) [Compound 103, 4-(4-cyclobutylpiperazin-1-yl)-7-[1-(3-fluorophenyl)ethyl]-5,6,7,8-tetrahydropyrido[3,4-d]pyrimidine]
CC(c1ccc(F)cc1)N1CCc2c(ncnc2N2CCN(C3CCC3)CC2)C1 (centres unmarked) [Compound 104, 4-(4-cyclobutylpiperazin-1-yl)-7-[1-(4-fluorophenyl)ethyl]-5,6,7,8-tetrahydropyrido[3,4-d]pyrimidine]
Cc1cccc(C(C)N2CCc3c(ncnc3N3CCN(C4CCC4)CC3)C2)c1 (centres unmarked) [Compound 105, 4-(4-cyclobutylpiperazin-1-yl)-7-[1-(3-methylphenyl)ethyl]-5,6,7,8-tetrahydropyrido[3,4-d]pyrimidine]
Cc1ccc(C(C)N2CCc3c(ncnc3N3CCN(C4CCC4)CC3)C2)cc1 (centres unmarked) [Compound 106, 4-(4-cyclobutylpiperazin-1-yl)-7-[1-(4-methylphenyl)ethyl]-5,6,7,8-tetrahydropyrido[3,4-d]pyrimidine]
CC(c1nccn1C)N1CCc2c(ncnc2N2CCN(C3CCC3)CC2)C1 (centres unmarked) [Compound 107, 4-(4-cyclobutylpiperazin-1-yl)-7-[1-(1-methyl-1H-imidazol-2-yl)ethyl]-5,6,7,8-tetrahydropyrido[3,4-d]pyrimidine]
CC(c1ccnc2ccccc12)N1CCc2c(ncnc2N2CCN(C3CCC3)CC2)C1 (centres unmarked) [Compound 108, 4-(4-cyclobutylpiperazin-1-yl)-7-(1-quinolin-4-ylethyl)-5,6,7,8-tetrahydropyrido[3,4-d]pyrimidine]
CC(c1cnc2ccccc2c1)N1CCc2c(ncnc2N2CCN(C3CCC3)CC2)C1 (centres unmarked) [Compound 109, 4-(4-cyclobutylpiperazin-1-yl)-7-(1-quinolin-3-ylethyl)-5,6,7,8-tetrahydropyrido[3,4-d]pyrimidine]
